Results as given in patent US6709864B1, “Adipogenic differentiation of human mesenchymal stem cells” (Osiris Therapeutics, Inc., priority 1996, dated 2004).

Experiments:
[1] = tested on: human mesenchymal stem cells; test: Nile Red / DAPI fluorescence plate reader assay of adipogenic differentiation of hMSCs; format: cell-based
Experimental: These experiments were performed to determine the effect of adding varying concentrations of indomethacin to mesenchymal stem cells in culture to induce adipogenic differentiation. […] We also tested indomethacin under the same conditions however in the absence of methyl isobutylxanthine. The results were compared visually by observing the accumulation of lipid within the cells and by staining the lipid with the fluorescent lipid-soluble dye Nile Red and reading on a fluorescence plate reader as described in Example 6. These experiments were performed to determine the effect of adding varying concentrations of 15-deoxy Δ^12,14 -prostaglandin J2 (15d-PGJ2) to […] in culture to induce adipogenic differentiation. […] We also tested 15d-PGJ2 under the same conditions without methyl isobutylxanthine present. hMSCs were grown in 12 or 24 well tissue culture plates and were treated with adipogenic inducing agents as described above when the cells were post-confluent. After three treatments, the cells were allowed to accumulate lipid for an additional week prior to analysis. The cell layers were rinsed with Dulbecco's modified PBS (D.PBS) and fixed for 30 minutes in 10% Neutral Buffered Formalin. The plates were then rinsed with D. PBS and incubated for 30 minutes with 0.02% Saponin, 0.8 μg/ml DAPI (from an aqueous 2 mg/ml stock) and 1 μg/ml Nile Red (from a 1 mg/ml stock in acetone) in D. PBS. Plates were then rinsed three times with D.PBS.

[2] = tested on: human mesenchymal stem cells; test: Adipogenesis assay of hMSCs, lipid vacuoles observed by microscopy / Oil Red O; format: cell-based; conditions: methyl isobutylxanthine alone in normal hMSC media during induction, then 14 days Adipogenic Maintenance Media
Experimental: Human MSCs are isolated from the red bone marrow of volunteer donors as described in U.S. Pat. No.5,486,359. The cells are grown until colonies are well established and at this point the cells are subcultured (1 to 3) or they can be taken to assay for in vitro adipogenesis. For the adipogenesis assay, hMSCs are subcultured into 35 mm tissue culture dishes at 100,000 cells per dish and fed with 2 milliliters normal hMSC Media (Dulbecco's Modified Eagle's Media (DMEM), 10% selected Fetal Bovine Serum (FBS) and antibiotic/antimycotic mixture (IX) (Life Technologies, Inc.)) and cells are maintained at 37° C., 5% CO2 and 90% humidity. The cells are refed with the fresh media every third day and are allowed to multiply and become confluent. The cells are maintained after reaching confluence by refeeding every third day and this time period of post confluence culturing enhances the adipogenic response in the next step (at least out to 14 days). The differentiation into adipocytes is initiated by changing the media to 2 ml of Adipogenic Induction Media (DMEM with 10% fetal bovine serum containing 10 μg/ml insulin (human recombinant, Boehringer Mannheim Corp.), 0.5 mM methyl isobutylxanthine (MIX)(Sigma Chemical Co.), 1 μM dexamethasone (Dex)(Sigma Chemical Co.)). […]

[3] = 1 μM 15d-PGJ2 with insulin only (I)
[4] = 10 μM 15d-PGJ2 with insulin only (I)
[5] = 50 μM indomethacin in DI (no MIX)
[6] = 50 μM indomethacin with insulin only (I)
[7] = 100 μM indomethacin in DI (no MIX)
[8] = 100 μM indomethacin with insulin only (I)
[9] = 200 μM indomethacin in DI (no MIX)
[10] = 200 μM indomethacin with insulin only (I)

Q: Which “DAPI (cor)” value ([1]; 1 μM 15d-PGJ2 in DI (no MIX)) does the source give for `CCCCC/C=C/C=C1/C(=O)C=C[C@@H]1C/C=C\CCCC(=O)O` [15d-PGJ2, 15-deoxy Δ^12,14-prostaglandin J2] here?
A: 5.99 relative fluorescence intensity

Q: And the “Nile red (cor)” value ([1]; 1 μM 15d-PGJ2 in DI (no MIX))?
A: 1.19 relative fluorescence intensity

Q: And the “Nile red/DAPI” value ([1]; 1 μM 15d-PGJ2 in DI (no MIX))?
A: 0.20

Q: What about the “DAPI (cor)” value ([1]; 1 μM 15d-PGJ2 in MDI) of the same compound?
A: 6.53 relative fluorescence intensity

Q: And the “Nile red (cor)” value ([1]; 1 μM 15d-PGJ2 in MDI)?
A: 13.16 relative fluorescence intensity

Q: What about the “Nile red/DAPI” value ([1]; 1 μM 15d-PGJ2 in MDI) of the same compound?
A: 2.02

Q: And the “DAPI (cor)” value [1, 3]?
A: 4.98 relative fluorescence intensity

Q: What about the “Nile red (cor)” value [1, 3] of the same compound?
A: 0.83 relative fluorescence intensity

Q: What about the “Nile red/DAPI” value [1, 3] of the same compound?
A: 0.17

Q: And the “DAPI (cor)” value ([1]; 10 μM 15d-PGJ2 in MDI)?
A: 7.22 relative fluorescence intensity

Q: What about the “Nile red (cor)” value ([1]; 10 μM 15d-PGJ2 in MDI) of the same compound?
A: 17.56 relative fluorescence intensity

Q: And the “Nile red/DAPI” value ([1]; 10 μM 15d-PGJ2 in MDI)?
A: 2.43

Q: And the “DAPI (cor)” value [1, 4]?
A: 5.75 relative fluorescence intensity

Q: What about the “Nile red (cor)” value [1, 4] of the same compound?
A: 0.85 relative fluorescence intensity

Q: And the “Nile red/DAPI” value [1, 4]?
A: 0.15

Q: And the adipogenic response ([1]; 15d-PGJ2 1 or 10 μM in MDI induction medium)?
A: dose dependent increase

Q: What about the “adipogenic effectiveness compared with indomethacin” value ([1]; 15d-PGJ2 at 10 μM added to MDI medium) of the same compound?
A: nearly as effective as indomethacin

Q: What about the effect on adipogenesis ([1]; 15d-PGJ2 with insulin alone) of the same compound?
A: no significant effect

Q: And the “DAPI (cor)” value ([1]; DI + 10 15d-PGJ2 (no MIX))?
A: 5.36 relative fluorescence intensity

Q: What about the “Nile red (cor)” value ([1]; DI + 10 15d-PGJ2 (no MIX)) of the same compound?
A: 2.57 relative fluorescence intensity

Q: And the “Nile red/DAPI” value ([1]; DI + 10 15d-PGJ2 (no MIX))?
A: 0.48

Q: And the adipogenic response ([1]; DI + 15d-PGJ2)?
A: weak adipogenic response

Q: With `COc1ccc2c(c1)c(CC(=O)O)c(C)n2C(=O)c1ccc(Cl)cc1` [indomethacin] as the compound, how does the “DAPI (cor)” value [1, 5] read?
A: 6.66 relative fluorescence intensity

Q: What about the “Nile red (cor)” value [1, 5] of the same compound?
A: 3.11 relative fluorescence intensity

Q: What about the “Nile red/DAPI” value [1, 5] of the same compound?
A: 0.47

Q: And the “DAPI (cor)” value ([1]; 50 μM indomethacin in MDI)?
A: 7.8 relative fluorescence intensity

Q: And the “Nile red (cor)” value ([1]; 50 μM indomethacin in MDI)?
A: 11.72 relative fluorescence intensity

Q: And the “Nile red/DAPI” value ([1]; 50 μM indomethacin in MDI)?
A: 1.50

Q: What about the “DAPI (cor)” value [1, 6] of the same compound?
A: 5.12 relative fluorescence intensity

Q: And the “Nile red (cor)” value [1, 6]?
A: 0.64 relative fluorescence intensity

Q: And the “Nile red/DAPI” value [1, 6]?
A: 0.13

Q: And the “DAPI (cor)” value [1, 7]?
A: 6.77 relative fluorescence intensity

Q: What about the “Nile red (cor)” value [1, 7] of the same compound?
A: 5.35 relative fluorescence intensity

Q: And the “Nile red/DAPI” value [1, 7]?
A: 0.79

Q: What about the “DAPI (cor)” value ([1]; 100 μM indomethacin in MDI) of the same compound?
A: 7.11 relative fluorescence intensity

Q: What about the “Nile red (cor)” value ([1]; 100 μM indomethacin in MDI) of the same compound?
A: 16.39 relative fluorescence intensity

Q: And the “Nile red/DAPI” value ([1]; 100 μM indomethacin in MDI)?
A: 2.31

Q: What about the “DAPI (cor)” value [1, 8] of the same compound?
A: 5.81 relative fluorescence intensity

Q: What about the “Nile red (cor)” value [1, 8] of the same compound?
A: 0.74 relative fluorescence intensity

Q: And the “Nile red/DAPI” value [1, 8]?
A: 0.13

Q: What about the “DAPI (cor)” value [1, 9] of the same compound?
A: 6.03 relative fluorescence intensity

Q: And the “Nile red (cor)” value [1, 9]?
A: 10.08 relative fluorescence intensity

Q: And the “Nile red/DAPI” value [1, 9]?
A: 1.67

Q: What about the “DAPI (cor)” value ([1]; 200 μM indomethacin in MDI) of the same compound?
A: 8.72 relative fluorescence intensity

Q: And the “Nile red (cor)” value ([1]; 200 μM indomethacin in MDI)?
A: 20.27 relative fluorescence intensity

Q: And the “Nile red/DAPI” value ([1]; 200 μM indomethacin in MDI)?
A: 2.32

Q: What about the “DAPI (cor)” value [1, 10] of the same compound?
A: 5.28 relative fluorescence intensity

Q: And the “Nile red (cor)” value [1, 10]?
A: 0.74 relative fluorescence intensity

Q: And the “Nile red/DAPI” value [1, 10]?
A: 0.14

Q: What about the “commitment of hMSCs to adipocyte lineage and intracellular lipid accumulation” value ([1]; indomethacin 50-200 μM in MDI induction medium) of the same compound?
A: dose dependent increase

Q: And the hMSCs becoming adipocytes ([1]; indomethacin at 200 μM in MDI)?
A: ~100%

Q: What about the “Nile Red staining relative to MDI sample alone” value ([1]; indomethacin at 200 μM in MDI, fluorescent plate reader) of the same compound?
A: nearly three times that of the MDI sample alone

Q: What about the “adipogenic differentiation level relative to MDI+indomethacin” value ([1]; indomethacin in DMEM with dexamethasone and insulin only (DI)) of the same compound?
A: approximately half that of the MDI+indomethacin sample

Q: And the “effect on hMSC adipogenesis” value ([1]; indomethacin with insulin)?
A: no significant effect

Q: Which “cell phenotype (morphology)” value [2] does the source give for `CC(C)Cn1c(=O)n(C)c(=O)c2[nH]cnc21` [methyl isobutylxanthine, 1-methyl-3-isobutylxanthine] here?
A: retain a flat fibroblastic phenotype
